Measurements published in EP4775586A1, “DEUTERATED TETRACYCLIC DERIVATIVE AND USE THEREOF” (priority 2023, dated 2025).
Values after ≈ are worked out from the molar mass of the structure shown. Counter-ions that a name gives are not always drawn. Like-named read-outs stand apart in the source and are kept apart here.

System: Mycobacterium tuberculosis H37Rv
Assay: Minimum inhibitory concentration (MIC90) against Mycobacterium tuberculosis H37Rv, Middlebrook 7H9, 96-well plate, 15 days
Assay type: cell-based
[1] = Mycobacterium tuberculosis, H37RV, 360 h, Mycobacterium tuberculosis H37Rv, 15 days of incubation, 90% inhibition of growth, visual reading
[2] = 360 h, Mycobacterium tuberculosis H37Rv, 15 days of incubation, 90% inhibition of growth, visual reading, read-out: MIC90

Row | Molecule | MIC90 [1] | further results
1 | [2H]C1([2H])N(Cc2c(O)cc(C(C)(C)C)c3oc4c5ccc(O)cc5oc(=O)c4c23)C([2H])([2H])C([2H])([2H])C([2H])([2H])C1([2H])[2H] [YF004, 10-(tert-Butyl)-3,8-dihydroxy-7-((piperidin-1-yl-d10)methyl)-6H-benzofuran[3,2-c]chromen-6-one] | ≤ 0.0039 µg/mL | –
2 | [2H]c1c(O)c(C([2H])([2H])N2C([2H])([2H])CC(C(=O)CCC)CC2([2H])[2H])c2c3c(oc2c1[2H])-c1ccc(O)cc1C([2H])([2H])OC3=O [YF013, 8-((4-Butanoylpiperidin-1-yl-2,2,6,6-d4)-methyl-d2)-3,9-dihydroxybenzo[5,6]oxepino[4,3-b]benzofuran-7(5H)-one-5,5,10,11-d4] | – | MIC90 [2]: 0.0625 µg/mL (≈ 0.136 µM)
3 | [2H]c1c(O)c(C([2H])([2H])N2CCC([2H])(C(O)C([2H])([2H])CC)CC2)c2c3c(oc2c1[2H])-c1ccc(O)cc1C([2H])([2H])OC3=O (centres unmarked) [YF047, 3,9-Dihydroxy-8-((4-(1-hydroxybutyl-2,2-d2)piperidin-1-yl-1-d)methyl-d2)benzo[5,6]oxepino[4,3-b]benzofuran-7(5H)-one-5,5,10,11-d4 hydrochloride] | 0.0156 µg/mL | –
4 | 8-((4-(Butanoyl-2,2-d2)piperidin-1-yl-4-d)methyl-d2)-3,9-dihydroxybenzo[5,6]oxepino[4,3-b]benzofuran-7(5H)-one-5,5,10,11-d4 hydrochloride [YF038] | – | MIC90 (Mycobacterium tuberculosis H37Rv, 15 days of incubation, 90% inhibition of growth, visual reading): 0.0625 µg/mL
5 | [2H]C([2H])(CC)C(=O)C1([2H])CCN(Cc2c(O)ccc3oc4c(c23)C(=O)OCc2cc(O)ccc2-4)CC1 [YF011, 8-((4-(Butanoyl-2,2-d2)piperidin-1-yl-4-d)methyl)-3,9-dihydroxybenzo[5,6]oxepino[4,3-b]benzofuran-7(5H)-one] | – | MIC90 [2]: 0.0625 µg/mL (≈ 0.138 µM)
6 | [2H]C([2H])(c1c(O)cc(C(C)(C)C)c2oc3c4ccc(O)cc4oc(=O)c3c12)N1CCCCC1 [YF001, 10-(tert-Butyl)-3,8-dihydroxy-7-(piperidin-1-ylmethyl-d2)-6H-benzofuran[3,2-c]chromen-6-one] | ≤ 0.0039 µg/mL | –
7 | [2H]C1([2H])CC(C(O)CCC)CC([2H])([2H])N1C([2H])([2H])c1c(O)ccc2oc3c(c12)C(=O)OCc1cc(O)ccc1-3 (centres unmarked) [YF043, 3,9-Dihydroxy-8-((4-(1-hydroxybutyl)piperidin-2,2,6,6-d4-1-yl)methyl)benzo[5,6]oxepino[4,3-b]benzofuran-7(5H)-one hydrochloride] | 0.0156 µg/mL | –
8 | [2H]c1c(O)c(C([2H])([2H])N2C([2H])([2H])CC(C([2H])(O)CCC)CC2([2H])[2H])c2c3c(oc2c1[2H])-c1ccc(O)cc1C([2H])([2H])OC3=O (centres unmarked) [YF046, 3,9-Dihydroxy-8-((4-(1-hydroxybutyl-1-d)piperidin-2,2,6,6-d4-1-yl)methyl-d2)benzo[5,6]oxepino[4,3-b]benzofuran-7(5H)-one-5,5,10,11-d4 hydrochloride] | 0.0156 µg/mL | –
9 | [2H]c1c(O)c(C([2H])([2H])N2C([2H])([2H])CC(C([2H])(O)CCC)CC2([2H])[2H])c2c3c(oc2c1[2H])-c1ccc(O)cc1C([2H])([2H])OC3=O (centres unmarked) [YF022, 3,9-Dihydroxy-8-((4-(1-hydroxybutyl-1-d)piperidin-2,2,6,6-d4-1-yl)methyl-d2)benzo[5,6]oxepino[4,3-b]benzofuran-7(5H)-one-5,5,10,11-d4] | – | MIC90 (H37RV, 360 h): 0.0156 µg/mL (≈ 0.0337 µM)
10 | [2H]C([2H])(c1c(O)ccc2oc3c(c12)C(=O)OCc1cc(O)ccc1-3)N1CCC(c2cccc(Cl)c2)CC1 [YF006, 8-((4-(3-Chlorophenyl)piperidin-1-yl)methyl-d2)-3,9-dihydroxybenzo[5,6]oxepino[4,3-b]benzofuran-7(5H)-one] | – | MIC90 [2]: 0.125 µg/mL (≈ 0.254 µM)
11 | [2H]c1c(O)c(C([2H])([2H])N2CCC([2H])(C([2H])(O)C([2H])([2H])CC)CC2)c2c3c(oc2c1[2H])-c1ccc(O)cc1C([2H])([2H])OC3=O (centres unmarked) [YF048, 3,9-Dihydroxy-8-((4-(1-hydroxybutyl-1,2,2-d3)piperidin-1-yl-1-d)methyl-d2)benzo[5,6]oxepino[4,3-b]benzofuran-7(5H)-one-5,5,10,11-d4 hydrochloride] | 0.0156 µg/mL | –
